The values below come from US6602296B1, “Chemical supplementation of bone” (The University of Western Australia, priority 1997, dated 2003).

For one series, the system named is Staphylococcus aureus. The note with it: varies with different phage types; cited from earlier work.
Series [1] in a line: Antibiotic iontophoresis in sheep tibia, antibiotic concentration in bone samples. The note with it: 1% solution, 100 volts. On the procedure: Quantitative analysis was then carried out to test iontophoresis as a means of antibiotic delivery in allograft bone. Specimens of sheep tibia were prepared as described above. […] A potential difference of 100 volts was applied for 1 minute, 5 minutes or 10 minutes with controls being set up the same way for 10 minutes except no potential difference was applied. A recording of current passed for each specimen was made.
Each sample was then washed in water and dried. Samples from 10 the endosteal and periosteal surfaces were then taken by drilling the bone using a 3 mm low speed drill, in 10 positions on each surface, and crushed to a fine powder. To a known mass of each sample was added distilled water (2 ml) and the sample agitated using ultrasound. The sample was then centrifuged and the supernatant removed and the process repeated a further 2 times. The last wash was left to soak for 12 hours before centrifuging. […] The supernatant solutions were then analysed for antibiotic content; for gentamicin using Fluorescence Polarisation Immuno Assay (Abbot Axsym Analyser); and for flucloxacillin the assays were performed using High Performance Liquid Chromatography (HPLC) technique. From the levels in the supernatant solutions, the antibiotic concentrations in the bone samples were calculated. […]

For the substance gentamicin Sulphate, the minimum inhibitory concentration entry with Staphylococcus aureus is “approximately 0.25 mg/L”. For the same substance, in series [1], the “plateau level in endosteal and periosteal specimens” value is recorded as “about 150 mg/Kg”.
